Measured values reported in BindingDB's records for doi:10.1016/j.bmcl.2019.06.049 (Dongguk University, 2019).

Target: T1, Nuclear factor erythroid 2-related factor 2 (Homo sapiens, UniProt Q16236)
T1 sequence (Q16236 whole entry): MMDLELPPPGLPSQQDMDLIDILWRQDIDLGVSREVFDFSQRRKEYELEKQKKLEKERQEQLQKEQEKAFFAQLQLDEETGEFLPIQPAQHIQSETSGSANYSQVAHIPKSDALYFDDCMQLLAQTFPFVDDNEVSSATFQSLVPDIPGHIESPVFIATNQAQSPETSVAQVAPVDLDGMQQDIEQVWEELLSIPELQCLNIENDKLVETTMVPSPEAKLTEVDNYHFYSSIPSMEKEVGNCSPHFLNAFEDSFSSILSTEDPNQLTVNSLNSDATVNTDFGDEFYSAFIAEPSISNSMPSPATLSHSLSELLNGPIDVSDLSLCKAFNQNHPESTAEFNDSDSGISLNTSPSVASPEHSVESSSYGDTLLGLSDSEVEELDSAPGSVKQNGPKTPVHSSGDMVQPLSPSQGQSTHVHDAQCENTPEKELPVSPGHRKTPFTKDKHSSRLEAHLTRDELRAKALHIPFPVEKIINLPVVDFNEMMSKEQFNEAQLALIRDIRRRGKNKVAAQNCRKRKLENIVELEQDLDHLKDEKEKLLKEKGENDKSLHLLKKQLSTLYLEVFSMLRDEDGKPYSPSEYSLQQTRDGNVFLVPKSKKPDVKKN
Test: Inhibition of NRF2 in human MDA-MB-231 cells harboring ARE-GFP-Luc assessed as reduction in ARE-luciferase activity after 16 hrs by firefly luciferase reporter gene assay

COC(=O)[C@@]12OC[C@]34[C@H]([C@@H](O)[C@@H]1O)[C@@]1(C)CC(=O)C(O)=C(C)[C@@H]1C[C@H]3OC(=O)[C@H](OC(=O)C=C(C)C)[C@@H]24 was tested, and the IC50 was 0.029 µM.
